Reference: US20110160196A1, “FACTOR XA INHIBITORS” (Millennium Pharmaceuticals, Inc., priority 2007, published 2011)
pIC50: −log10 of the molar value.

molecular target: T1, human plasma protein factor Xa (Homo sapiens, UniProt P00742); assay: Factor Xa IC50 determination (cleavage of paranitroanilide substrate S-2765); type: biochemical; details: factor Xa 1 nM, S-2765 100 μM, Tris buffered saline pH 7.4, read at 405 nm
T1 construct: The human plasma protein factor Xa was purchased; purchased Haematologic Technologies (Essex Junction, Vt.); host or cells: human plasma
In short: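 Human plasma factor Xa (1 nM) preincubated 5 min at room temperature with inhibitor (0.01 nM–10 μM) in Tris-buffered saline pH 7.4 with 5 mM CaCl2, 0.1% BSA, 5% DMSO. S-2765 added at 100 μM final; pNA release followed at 405 nm for 2 min. IC50 from four-parameter fit of initial velocities.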

T1 sequence (P00742 235-488 limits assumed): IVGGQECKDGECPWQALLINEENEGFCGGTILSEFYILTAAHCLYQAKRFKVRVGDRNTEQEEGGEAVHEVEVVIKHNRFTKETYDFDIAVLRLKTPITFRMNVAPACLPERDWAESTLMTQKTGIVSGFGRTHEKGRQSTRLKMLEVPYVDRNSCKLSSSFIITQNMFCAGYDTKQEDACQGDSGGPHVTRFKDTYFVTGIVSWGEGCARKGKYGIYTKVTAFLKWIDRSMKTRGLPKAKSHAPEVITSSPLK
T1 sequence (P00742 41-179 partner limits assumed): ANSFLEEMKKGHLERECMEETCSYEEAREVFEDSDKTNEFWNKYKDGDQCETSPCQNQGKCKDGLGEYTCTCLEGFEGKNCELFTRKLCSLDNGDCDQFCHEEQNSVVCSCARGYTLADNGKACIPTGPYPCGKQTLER

Compound	pIC50
O=C(NCc1cn(-c2ccc(-n3ccccc3=O)cc2OCCc2ccccn2)nn1)c1ccc(Cl)s1 [Compound 168, 5-Chloro-N-((1-(4-(2-oxopyridin-1(2H)-yl)-2-(2-(pyridin-2-yl)ethoxy)phenyl)-1H-1,2,3-triazol-4-yl)methyl)thiophene-2-carboxamide]	≥ 7.00
O=C(NCc1cn(-c2ccc(-n3ccccc3=O)cc2OCc2ccccn2)nn1)c1ccc(Cl)s1 [Compound 169, 5-Chloro-N-((1-(4-(2-oxopyridin-1(2H)-yl)-2-(pyridin-2-ylmethoxy)phenyl)-1H-1,2,3-triazol-4-yl)methyl)thiophene-2-carboxamide]	≥ 7.00
O=C(NCc1cn(-c2ccc(-n3ccccc3=O)cc2OCc2ccc3ccccc3n2)nn1)c1ccc(Cl)s1 [Compound 170, 5-Chloro-N-((1-(4-(2-oxopyridin-1(2H)-yl)-2-(quinolin-2-ylmethoxy)phenyl)-1H-1,2,3-triazol-4-yl)methyl)thiophene-2-carboxamide]	≥ 7.00
O=C(NCc1cn(-c2ccc(-n3ccccc3=O)cc2OCc2cscn2)nn1)c1ccc(Cl)s1 [Compound 171, 5-Chloro-N-((1-(4-(2-oxopyridin-1(2H)-yl)-2-(thiazol-4-ylmethoxy)phenyl)-1H-1,2,3-triazol-4-yl)methyl)thiophene-2-carboxamide]	≥ 7.00
Cc1nc(COc2cc(-n3ccccc3=O)ccc2-n2cc(CNC(=O)c3ccc(Cl)s3)nn2)cs1 [Compound 172, 5-Chloro-N-((1-(2-((2-methylthiazol-4-yl)methoxy)-4-(2-oxopyridin-1(2H)-yl)phenyl)-1H-1,2,3-triazol-4-yl)methyl)thiophene-2-carboxamide]	≥ 7.00
O=C(NCc1cn(-c2ccc(-n3ccccc3=O)cc2OCc2nc3ccccc3[nH]2)nn1)c1ccc(Cl)s1 [Compound 173, N-((1-(2-((1H-Benzo[d]imidazol-2-yl)methoxy)-4-(2-oxopyridin-1(2H)-yl)phenyl)-1H-1,2,3-triazol-4-yl)methyl)-5-chlorothiophene-2-carboxamide]	≥ 7.00
O=C(NCc1cn(-c2ccc(-n3ccccc3=O)cc2OCCc2cccnc2)nn1)c1ccc(Cl)s1 [Compound 174, 5-Chloro-N-((1-(4-(2-oxopyridin-1(2H)-yl)-2-(2-(pyridin-3-yl)ethoxy)phenyl)-1H-1,2,3-triazol-4-yl)methyl)thiophene-2-carboxamide]	≥ 7.00
O=C(NCc1cn(-c2ccc(-n3ccccc3=O)cc2OCc2ncon2)nn1)c1ccc(Cl)s1 [Compound 175, N-((1-(2-((1,2,4-Oxadiazol-3-yl)methoxy)-4-(2-oxopyridin-1(2H)-yl)phenyl)-1H-1,2,3-triazol-4-yl)methyl)-5-chlorothiophene-2-carboxamide]	≥ 7.00
Cn1ccnc1COc1cc(-n2ccccc2=O)ccc1-n1cc(CNC(=O)c2ccc(Cl)s2)nn1 [Compound 176, 5-Chloro-N-((1-(2-((1-methyl-1H-imidazol-2-yl)methoxy)-4-(2-oxopyridin-1(2H)-yl)phenyl)-1H-1,2,3-triazol-4-yl)methyl)thiophene-2-carboxamide]	≥ 7.00
O=C(NCc1cn(-c2ccc(-n3ccccc3=O)cc2OCc2ncc[nH]2)nn1)c1ccc(Cl)s1 [Compound 177, N-((1-(2-((1H-Imidazol-2-yl)methoxy)-4-(2-oxopyridin-1(2H)-yl)phenyl)-1H-1,2,3-triazol-4-yl)methyl)-5-chlorothiophene-2-carboxamide]	≥ 7.00
O=C(NCc1cn(-c2ccc(-n3ccccc3=O)cc2OCc2nccn2Cc2ncc[nH]2)nn1)c1ccc(Cl)s1 [Compound 178, N-((1-(2-((1-((1H-imidazol-2-yl)methyl)-1H-imidazol-2-yl)methoxy)-4-(2-oxopyridin-1(2H)-yl)phenyl)-1H-1,2,3-triazol-4-yl)methyl)-5-chlorothiophene-2-carboxamide]	≥ 7.00
Cc1cc(COc2cc(-n3ccccc3=O)ccc2-n2cc(CNC(=O)c3ccc(Cl)s3)nn2)no1 [Compound 179, 5-Chloro-N-((1-(2-((5-methylisoxazol-3-yl)methoxy)-4-(2-oxopyridin-1(2H)-yl)phenyl)-1H-1,2,3-triazol-4-yl)methyl)thiophene-2-carboxamide]	≥ 7.00
O=C(NCc1cn(-c2ccc(-n3ccccc3=O)cc2OCCn2cccc2)nn1)c1ccc(Cl)s1 [Compound 180, N-((1-(2-(2-(1H-Pyrrol-1-yl)ethoxy)-4-(2-oxopyridin-1(2H)-yl)phenyl)-1H-1,2,3-triazol-4-yl)methyl)-5-chlorothiophene-2-carboxamide]	≥ 7.00
